Assay results published in patent US7326699B2, “4-Amino-5-phenyl-7-cyclobutyl-pyrrolo(2,3-d)pyrimidine derivatives” (Novartis AG, priority 2001, dated 2008).

What follows are compounds tested against T1, human IGF-IR (Homo sapiens, UniProt P08069) (assay: cellular "Capture ELISA": IGF-I induced IGF-IR autophosphorylation). Details: NIH-3T3 mouse fibroblasts transfected with human IGF-IR cDNA, 90 min compound, 10 ng/ml IGF-I for 10 min.
T1 construct: complete human IGF-IR cDNA: GenBank Acc; No. NM_000875; expressed in transfected cells; host or cells: NIH-3T3 mouse fibroblasts
Assay type: cell-based
Procedure: In this assay the activity of the compounds of the invention against Insulin-like growth factor I (IGF-I) induced autophosphorylation of the IGF-IGF-IR is determined. The assay is conducted as follows:
The cells which overexpress human IGF-IGF-IR are cultured in Dulbecco's minimal essential (DMEM) medium, containing 10% Fetal Calf Serum (FCS). […] On day 3 the medium is discarded and the cells are incubated for 24 h in minimal medium (DMEM, containing 0.5% FCS). […] The cells are incubated for 90 min in the presence of a compound of formula I. Thereafter the cells are stimulated with 50 μl IGF-I (final concentration of IGF-I in the well=10 ng/ml; IGF-I is obtained from Sigma; Product Code: I3769) and incubated for 10 min at 37° C.
The medium is discarded and the cells are washed twice with PBS/O (=Phosphate-Buffered Saline without CaCl2) and lysed for 15 min on ice with 50 μl/well RIPA-buffer [50 mM Tris.HCl, pH=7.2, 120 mM NaCl, 1 mM EDTA, 6 mM EGTA, 1% NP-40, 20 mM NaF, 1 mM benzamidine, 15 mM sodium pyrophosphate, 1 mM Phenyl methyl sulphonyl fluoride (PMSF) and 0.5 mM Na3VO4] and shaken for 10 min using a 96-well plate shaker (=cellular extracts).
The plates are washed twice with 0.05% (v/v) Tween-20 in Phosphate-Buffered Saline (PBS) and once with nanopure H2O. […] After blocking, the plates are washed once with nanopure H2O.
After incubating the extracts and the secondary antibody for 2 h at 4° C., the extracts are discarded, the plates are washed twice with 0.05% (v/v) Tween-20 in PBS and once with nanopure water.
90 μl/well AP substrate (CDP-Star; obtained from Tropix; Cat. No.: MS100RY) are then added and the plates are incubated for 45 min at RT in the dark, followed by measuring AP activity in a Packard Top Count Microplate Scintillation Counter. The IC50 values for the compounds of formula I are calculated via linear regression analysis using the GraphPad In-stat program (GraphPad Software, USA).
Test for activity against IGF-I induced IGF-IR autophosphorylation using the cellular “Capture ELISA” test
The cellular “Capture ELISA” test is carried out as described above.

T1 sequence (P08069 31-1367): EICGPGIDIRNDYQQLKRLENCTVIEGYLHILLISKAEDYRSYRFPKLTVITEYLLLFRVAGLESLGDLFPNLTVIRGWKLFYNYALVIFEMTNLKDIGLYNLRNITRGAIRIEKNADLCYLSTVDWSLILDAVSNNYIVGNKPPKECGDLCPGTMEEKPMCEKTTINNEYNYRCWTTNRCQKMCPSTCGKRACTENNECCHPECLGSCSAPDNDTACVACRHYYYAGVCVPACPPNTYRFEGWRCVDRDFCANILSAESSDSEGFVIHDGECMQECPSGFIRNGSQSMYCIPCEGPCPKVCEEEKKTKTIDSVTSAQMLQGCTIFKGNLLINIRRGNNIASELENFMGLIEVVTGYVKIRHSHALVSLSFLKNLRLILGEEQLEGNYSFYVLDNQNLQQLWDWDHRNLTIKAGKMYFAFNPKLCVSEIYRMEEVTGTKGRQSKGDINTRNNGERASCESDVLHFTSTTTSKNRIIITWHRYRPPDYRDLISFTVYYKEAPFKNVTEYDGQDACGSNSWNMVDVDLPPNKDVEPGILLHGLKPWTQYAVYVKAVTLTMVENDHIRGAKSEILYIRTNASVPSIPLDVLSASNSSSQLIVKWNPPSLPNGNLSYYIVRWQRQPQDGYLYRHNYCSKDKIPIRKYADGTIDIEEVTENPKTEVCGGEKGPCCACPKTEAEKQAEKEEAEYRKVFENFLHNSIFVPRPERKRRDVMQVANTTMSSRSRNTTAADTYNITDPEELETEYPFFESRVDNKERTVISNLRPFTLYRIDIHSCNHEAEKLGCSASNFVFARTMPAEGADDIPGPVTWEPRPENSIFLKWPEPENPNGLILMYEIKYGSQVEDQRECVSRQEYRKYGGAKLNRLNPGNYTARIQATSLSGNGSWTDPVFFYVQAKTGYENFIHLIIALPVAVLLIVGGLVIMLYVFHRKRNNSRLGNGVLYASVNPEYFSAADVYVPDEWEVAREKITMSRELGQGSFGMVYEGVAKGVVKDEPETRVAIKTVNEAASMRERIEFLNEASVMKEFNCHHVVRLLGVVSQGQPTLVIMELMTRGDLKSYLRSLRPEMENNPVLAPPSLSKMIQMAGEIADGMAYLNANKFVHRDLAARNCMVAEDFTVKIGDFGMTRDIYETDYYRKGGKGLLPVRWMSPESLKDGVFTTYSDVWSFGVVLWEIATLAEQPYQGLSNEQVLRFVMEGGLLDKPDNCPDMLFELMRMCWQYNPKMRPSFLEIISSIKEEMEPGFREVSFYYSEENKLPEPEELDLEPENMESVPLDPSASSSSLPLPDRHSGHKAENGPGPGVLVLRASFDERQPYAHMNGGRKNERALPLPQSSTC

In order of falling IC50:
1. Cc1c(-c2cccc(OCc3ccccc3)c2)c2c(N)ncnc2n1[C@H]1C[C@H](CN2CCC(O)CC2)C1 [Example 109, trans-1-{3-[4-Amino-5-(3-benzyloxy-phenyl)-6-methyl-pyrrolo[2,3-d]pyrimidin-7-yl]-cyclobutylmethyl}-piperidin-4-ol]  150 nM
2. Cc1c(-c2cccc(OCc3ccccc3)c2)c2c(N)ncnc2n1[C@H]1C[C@H](CN2CCC2)C1 [Example 110, trans-7-(3-Azetidin-1-ylmethyl-cyclobutyl)-5-(3-benzyloxy-phenyl)-6-methyl-7-H-pyrrolo[2,3-d]pyrimidin-4-ylamine]  140 nM
3. Cc1c(-c2cccc(OCc3ccccc3)c2)c2c(N)ncnc2n1[C@H]1C[C@@H](CN2CCN(C)CC2)C1 [Example 117, cis-5-(3-Benzyloxy-phenyl)-6-methyl-7-[3-(4-methyl-piperazin-1-ylmethyl)-cyclobutyl]-7H-pyrrolo[2,3-d]pyrimidin-4-ylamine]  130 nM
4. COCCOC(=O)NC[C@H]1C[C@H](n2cc(-c3cccc(OCc4ccccc4)c3)c3c(N)ncnc32)C1 [Example 24, trans-{3-[4-Amino-5-(3-benzyloxy-phenyl)-pyrrolo[2,3-d]pyrimidin-7-yl]-cyclobutylmethyl}-carbamic acid 2-methoxy-ethyl ester]  95 nM
5. Cc1c(-c2cccc(OCc3ccccc3)c2)c2c(N)ncnc2n1[C@H]1C[C@H](CN2CCC[C@@H]2CO)C1 [Example 112, trans-((R)-1-{3-[4-Amino-5-(3-benzyloxy-phenyl)-6-methyl-pyrrolo[2,3-d]pyrimidin-7-yl]-cyclobutylmethyl}-pyrrolidin-2-yl)-methanol]  90 nM
6. Nc1ncnc2c1c(-c1cccc(OCc3ccccc3)c1)cn2[C@H]1C[C@H](CNC(=O)N2CCCCC2)C1 [Example 90, trans-Piperidine-1-carboxylic acid {3-[4-amino-5-(3-benzyloxy-phenyl)-pyrrolo[2,3-d]pyrimidin-7-yl]-cyclobutylmethyl}-amide]  90 nM
7. Nc1ncnc2c1c(-c1cccc(OCc3ccccc3)c1)cn2[C@H]1C[C@@H](CN2CCSCC2)C1 [Example 81, cis-5-(3-Benzyloxy-phenyl)-7-(3-thiomorpholin-4-ylmethyl-cyclobutyl)-7H-pyrrolo[2,3-d]pyrimidin-4-ylamine]  80 nM
8. CCN(CC)CCOC(=O)NC[C@H]1C[C@H](n2cc(-c3cccc(OCc4ccccc4)c3)c3c(N)ncnc32)C1 [Example 95, trans-{3-[4-amino-5-(3-benzyloxy-phenyl)pyrrolo[2,3-d]pyrimidin-7-yl]-cyclobutylmethyl}-carbamic acid 2-diethylamino-ethyl ester]  80 nM
9. COC(=O)NC[C@H]1C[C@H](n2cc(-c3cccc(OCc4ccccc4)c3)c3c(N)ncnc32)C1 [Example 22, trans-{3-[4-amino-5-(3-benzyloxy-phenyl)-pyrrolo[2,3-d]pyrimidin-7-yl]-cyclobutylmethyl}-carbamic acid methyl ester]  80 nM
10. CNC[C@H]1C[C@H](n2cc(-c3cccc(OCc4ccccc4)c3)c3c(N)ncnc32)C1 [Example 10, trans-5-(3-Benzyloxy-phenyl)-7-(3-methylaminomethyl-cyclobutyl)-7H-pyrrolo[2,3-d]pyrimidin-4-ylamine]  70 nM
11. NC[C@H]1C[C@@H](n2cc(-c3cccc(OCc4ccccc4)c3)c3c(N)ncnc32)C1 [Example 1, cis-7-(3-aminomethyl-cyclobutyl)-5-(3-benzyloxy-phenyl)-7H-pyrrolo[2,3-d]pyrimidin-4-ylamine]  62 nM
12. CNC(=O)NC[C@H]1C[C@@H](n2cc(-c3cccc(OCc4ccccc4)c3)c3c(N)ncnc32)C1 [Example 88, cis-1-{3-[4-Amino-5-(3-benzyloxy-phenyl)-pyrrolo[2,3-d]pyrimidin-7-yl]-cyclobutylmethyl}-3-methyl-urea]  57 nM
13. CCNC(=O)NC[C@H]1C[C@H](n2cc(-c3cccc(OCc4ccccc4)c3)c3c(N)ncnc32)C1 [Example 26, trans-1-{3-[4-amino-5-(3-benzyloxy-phenyl)-pyrrolo[2,3-d]pyrimidin-7-yl]-cyclobutylmethyl}-3-ethyl-urea]  55 nM
14. NC(=O)[C@H]1CCCN1C[C@H]1C[C@@H](n2cc(-c3cccc(OCc4ccccc4)c3)c3c(N)ncnc32)C1 [Example 83, cis-(R)-1-{3-[4-Amino-5-(3-benzyloxy-phenyl)-pyrrolo[2,3-d]pyrimidin-7-yl]-cyclobutylmethyl}-pyrrolidine-2-carboxylic acid amide]  52 nM
15. CCCNC(=O)NC[C@H]1C[C@H](n2cc(-c3cccc(OCc4ccccc4)c3)c3c(N)ncnc32)C1 [Example 28, trans-1-{3-[4-Amino-5-(3-benzyloxy-phenyl)-pyrrolo[2,3-d]pyrimidin-7-yl]-cyclobutylmethyl}-3-propyl-urea]  50 nM
16. CCNC(=O)NC[C@H]1C[C@@H](n2cc(-c3cccc(OCc4ccccc4)c3)c3c(N)ncnc32)C1 [Example 27, cis-{3-[4-Amino-5-(3-benzyloxy-phenyl)pyrrolo[2,3-d]pyrimidin-7-yl]-cyclobutylmethyl}-3-ethyl-urea]  50 nM
17. Nc1ncnc2c1c(-c1cccc(OCc3ccccc3)c1)cn2[C@H]1C[C@@H](CN2CCC(O)CC2)C1 [Example 77, cis-1-{3-[4-Amino-5-(3-benzyloxy-phenyl)-pyrrolo[2,3-d]pyrimidin-7-yl]-cyclobutylmethyl}-piperidin-4-ol]  50 nM
18. NC(=O)[C@@H]1CCCN1C[C@H]1C[C@H](n2cc(-c3cccc(OCc4ccccc4)c3)c3c(N)ncnc32)C1 [Example 75, trans-(S)1-{3-[4-Amino-5-(3-benzyloxy-phenyl)-pyrrolo[2,3-d]pyrimidin-7-yl]-cyclobutylmethyl}-pyrrolidine-2-carboxylic acid amide]  50 nM
19. Nc1ncnc2c1c(-c1cccc(OCc3ccccc3)c1)cn2[C@H]1C[C@H](CNC(=O)OCCN2CCOCC2)C1 [Example 96, trans-{3-[4-Amino-5-(3-benzyloxy-phenyl)-pyrrolo[2,3-d]pyrimidin-7-yl]-cyclobutylmethyl}-carbamic acid 2-morpholin-4-yl-ethyl ester]  50 nM
20. CNC[C@H]1C[C@@H](n2cc(-c3cccc(OCc4ccccc4)c3)c3c(N)ncnc32)C1 [Example 9, cis-5-(3-Benzyloxy-phenyl)-7-(3-methylaminomethyl-cyclobutyl)-7H-pyrrolo[2,3-d]pyrimidin-4-ylamine]  42 nM
21. CN(C)CCOC(=O)NC[C@H]1C[C@H](n2cc(-c3cccc(OCc4ccccc4)c3)c3c(N)ncnc32)C1 [Example 98, trans-{3-[4-Amino-5-(3-benzyloxy-phenyl)-pyrrolo[2,3-d]pyrimidin-7-yl]-cyclobutylmethyl}-carbamic acid 2-dimethylamino-ethyl ester]  40 nM
22. NC(=O)NC[C@H]1C[C@@H](n2cc(-c3cccc(OCc4ccccc4)c3)c3c(N)ncnc32)C1 [Example 49, cis-{3-[4-Amino-5-(3-benzyloxy-phenyl)-pyrrolo[2,3-d]pyrimidin-7-yl]-cyclobutylmethyl}-urea]  40 nM
23. COC(=O)NC[C@H]1C[C@@H](n2cc(-c3cccc(OCc4ccccc4)c3)c3c(N)ncnc32)C1 [Example 23, cis-{3-[4-Amino-5-(3-benzyloxy-phenyl)-pyrrolo[2,3-d]pyrimidin-7-yl]-cyclobutylmethyl}-carbamic acid methyl ester]  31 nM
24. CC(C)NC(=O)NC[C@H]1C[C@@H](n2cc(-c3cccc(OCc4ccccc4)c3)c3c(N)ncnc32)C1 [Example 31, cis-1-{3-[4-Amino-5-(3-benzyloxy-phenyl)-pyrrolo[2,3-d]pyrimidin-7-yl]-cyclobutylmethyl}-3-isopropyl-urea]  30 nM
25. CS(=O)(=O)NC[C@H]1C[C@@H](n2cc(-c3cccc(OCc4ccccc4)c3)c3c(N)ncnc32)C1 [Example 14, cis-N-{3-[4-Amino-5-(3-benzyloxy-phenyl)-pyrrolo[2,3-d]pyrimidin-7-yl]-cyclobutylmethyl}-methanesulfonamide]  30 nM
26. NC[C@H]1C[C@H](n2cc(-c3cccc(OCc4ccccc4)c3)c3c(N)ncnc32)C1 [Example 2, trans-7-(3-aminomethyl-cyclobutyl)-5-(3-benzyloxy-phenyl)-7H-pyrrolo[2,3-d]pyrimidin-4-ylamine]  30 nM
27. Nc1ncnc2c1c(-c1cccc(OCc3ccccc3)c1)cn2[C@H]1C[C@@H](CNC(=O)CN2CCCCC2)C1 [Example 57, cis-N-{3-[4-Amino-5-(3-benzyloxy-phenyl)-pyrrolo[2,3-d]pyrimidin-7-yl]-cyclobutylmethyl}-2-piperidin-1-yl-acetamide]  18 nM
